# Assay results reported in ChEMBL document CHEMBL3885881, “DrugMatrix”.
# Species: Rattus norvegicus
# Assay: DrugMatrix - Regimen: Daily Repeat
# Assay type: toxicity, organism-based, Sprague-Dawley
# Parameters: regimen Daily Repeat, gender Male, age 6-8 weeks
# Conditions: in vivo, sc, route subcutaneous, […]; for ABSOLUTE BASOPHIL / ABSOLUTE EOSINOPHIL / ABSOLUTE LYMPHOCYTE / ABSOLUTE MONOCYTE / ABSOLUTE SEGMENTED NEUTROPHIL / BASOPHIL / EOSINOPHIL / ERYTHROCYTE COUNT / HEMATOCRIT / HEMOGLOBIN / LEUKOCYTE COUNT / LYMPHOCYTE / MEAN CORPUSCULAR HEMOGLOBIN / MEAN CORPUSCULAR HEMOGLOBIN CONCENTRATION / MEAN CORPUSCULAR VOLUME / MONOCYTE / NEUTROPHIL / NUCLEATED RED BLOOD CELLS / PLATELET COUNT: tissue Blood; for ALANINE AMINOTRANSFERASE / ALBUMIN / ALKALINE PHOSPHATASE / ASPARTATE AMINOTRANSFERASE / BLOOD UREA NITROGEN / CARBON DIOXIDE / CHLORIDE / CHOLESTEROL / CREATINE PHOSPHOKINASE / CREATININE / GLUCOSE / LACTATE DEHYDROGENASE / LIPASE / PHOSPHORUS / POTASSIUM / SODIUM / TOTAL BILIRUBIN / TOTAL PROTEIN / URIC ACID: tissue Plasma
# [1] = 47.4 mg/kg, 72 h, dose level Low, time 3 day
# [2] = 47.4 mg/kg, 120 h, dose level Low, time 5 day
# [3] = 474 mg/kg, 72 h, dose level High, time 3 day
# [4] = 474 mg/kg, 120 h, dose level High, time 5 day
compound,measurement,setting,value
O=C(O)C(Cl)(Cl)Cl [TRICHLOROACETIC ACID],ABSOLUTE BASOPHIL,[1],0 CELLS/uL
same,ABSOLUTE EOSINOPHIL,[1],262.67 CELLS/uL
same,ABSOLUTE LYMPHOCYTE,[1],11309 CELLS/uL
same,ABSOLUTE MONOCYTE,[1],301 CELLS/uL
same,ABSOLUTE SEGMENTED NEUTROPHIL,[1],1027.33 CELLS/uL
same,BASOPHIL,[1],0%
same,EOSINOPHIL,[1],2%
same,ERYTHROCYTE COUNT,[1],5.38 x10E6/uL
same,HEMATOCRIT,[1],34.53%
same,HEMOGLOBIN,[1],12.9 G/DL
same,LEUKOCYTE COUNT,[1],12.9 x10E3/uL
same,LYMPHOCYTE,[1],87.67%
same,MEAN CORPUSCULAR HEMOGLOBIN,[1],24.07 pg
same,MEAN CORPUSCULAR HEMOGLOBIN CONCENTRATION,[1],37.33 G/DL
same,MEAN CORPUSCULAR VOLUME,[1],64.37 fL
same,MONOCYTE,[1],2.33%
same,NEUTROPHIL,[1],8%
same,NUCLEATED RED BLOOD CELLS,[1],0 /100WBC
same,PLATELET COUNT,[1],1349.67 x10E3/uL
same,ALANINE AMINOTRANSFERASE,[1],42.67 u/L
same,ALBUMIN,[1],4.2 G/DL
same,ALKALINE PHOSPHATASE,[1],412.67 u/L
same,ASPARTATE AMINOTRANSFERASE,[1],83.33 u/L
same,BLOOD UREA NITROGEN,[1],15.33 mg/dL
same,CARBON DIOXIDE,[1],25.67 mmol/L
same,CHLORIDE,[1],105.67 MEQ/L
same,CHOLESTEROL,[1],63 mg/dL
same,CREATINE PHOSPHOKINASE,[1],270.33 u/L
same,CREATININE,[1],0.23 mg/dL
same,GLUCOSE,[1],155.33 mg/dL
same,LACTATE DEHYDROGENASE,[1],325.67 u/L
same,LIPASE,[1],8.67 u/L
same,PHOSPHORUS,[1],12.73 mg/dL
same,POTASSIUM,[1],6.4 MEQ/L
same,SODIUM,[1],146.37 MEQ/L
same,TOTAL BILIRUBIN,[1],0.17 mg/dL
same,TOTAL PROTEIN,[1],5.3 G/DL
same,URIC ACID,[1],1.27 mg/dL
same,ABSOLUTE BASOPHIL,[2],0 CELLS/uL
same,ABSOLUTE EOSINOPHIL,[2],0 CELLS/uL
same,ABSOLUTE LYMPHOCYTE,[2],12836 CELLS/uL
same,ABSOLUTE MONOCYTE,[2],332 CELLS/uL
same,ABSOLUTE SEGMENTED NEUTROPHIL,[2],898.67 CELLS/uL
same,BASOPHIL,[2],0%
same,EOSINOPHIL,[2],0%
same,ERYTHROCYTE COUNT,[2],5.4 x10E6/uL
same,HEMATOCRIT,[2],33.93%
same,HEMOGLOBIN,[2],12.87 G/DL
same,LEUKOCYTE COUNT,[2],14.07 x10E3/uL
same,LYMPHOCYTE,[2],91.33%
same,MEAN CORPUSCULAR HEMOGLOBIN,[2],23.87 pg
same,MEAN CORPUSCULAR HEMOGLOBIN CONCENTRATION,[2],37.93 G/DL
same,MEAN CORPUSCULAR VOLUME,[2],62.87 fL
same,MONOCYTE,[2],2.33%
same,NEUTROPHIL,[2],6.33%
same,NUCLEATED RED BLOOD CELLS,[2],0 /100WBC
same,PLATELET COUNT,[2],1378 x10E3/uL
same,ALANINE AMINOTRANSFERASE,[2],40 u/L
same,ALBUMIN,[2],4.2 G/DL
same,ALKALINE PHOSPHATASE,[2],302.67 u/L
same,ASPARTATE AMINOTRANSFERASE,[2],75.33 u/L
same,BLOOD UREA NITROGEN,[2],20 mg/dL
same,CARBON DIOXIDE,[2],28.33 mmol/L
same,CHLORIDE,[2],105.67 MEQ/L
same,CHOLESTEROL,[2],66.33 mg/dL
same,CREATINE PHOSPHOKINASE,[2],164.33 u/L
same,CREATININE,[2],0.19 mg/dL
same,GLUCOSE,[2],166.33 mg/dL
same,LACTATE DEHYDROGENASE,[2],114 u/L
same,LIPASE,[2],8 u/L
same,PHOSPHORUS,[2],13.1 mg/dL
same,POTASSIUM,[2],6.29 MEQ/L
same,SODIUM,[2],148.4 MEQ/L
same,TOTAL BILIRUBIN,[2],0.17 mg/dL
same,TOTAL PROTEIN,[2],5.63 G/DL
same,URIC ACID,[2],1.6 mg/dL
same,ABSOLUTE BASOPHIL,[3],0 CELLS/uL
same,ABSOLUTE EOSINOPHIL,[3],47.33 CELLS/uL
same,ABSOLUTE LYMPHOCYTE,[3],16441.33 CELLS/uL
same,ABSOLUTE MONOCYTE,[3],452 CELLS/uL
same,ABSOLUTE SEGMENTED NEUTROPHIL,[3],2492.67 CELLS/uL
same,BASOPHIL,[3],0%
same,EOSINOPHIL,[3],0.33%
same,ERYTHROCYTE COUNT,[3],4.84 x10E6/uL
same,HEMATOCRIT,[3],30.03%
same,HEMOGLOBIN,[3],11.4 G/DL
same,LEUKOCYTE COUNT,[3],19.43 x10E3/uL
same,LYMPHOCYTE,[3],85%
same,MEAN CORPUSCULAR HEMOGLOBIN,[3],23.57 pg
same,MEAN CORPUSCULAR HEMOGLOBIN CONCENTRATION,[3],38.03 G/DL
same,MEAN CORPUSCULAR VOLUME,[3],62.03 fL
same,MONOCYTE,[3],2.33%
same,NEUTROPHIL,[3],12.33%
same,NUCLEATED RED BLOOD CELLS,[3],0.33 /100WBC
same,PLATELET COUNT,[3],1335.33 x10E3/uL
same,ALANINE AMINOTRANSFERASE,[3],56.33 u/L
same,ALBUMIN,[3],3.77 G/DL
same,ALKALINE PHOSPHATASE,[3],300.33 u/L
same,ASPARTATE AMINOTRANSFERASE,[3],95 u/L
same,BLOOD UREA NITROGEN,[3],18.33 mg/dL
same,CARBON DIOXIDE,[3],24.33 mmol/L
same,CHLORIDE,[3],105 MEQ/L
same,CHOLESTEROL,[3],68.67 mg/dL
same,CREATINE PHOSPHOKINASE,[3],418.33 u/L
same,CREATININE,[3],0.19 mg/dL
same,GLUCOSE,[3],142.67 mg/dL
same,LACTATE DEHYDROGENASE,[3],520.33 u/L
same,LIPASE,[3],7.67 u/L
same,PHOSPHORUS,[3],12.23 mg/dL
same,POTASSIUM,[3],6.31 MEQ/L
same,SODIUM,[3],146.47 MEQ/L
same,TOTAL BILIRUBIN,[3],0.2 mg/dL
same,TOTAL PROTEIN,[3],5.27 G/DL
same,URIC ACID,[3],1.37 mg/dL
same,ABSOLUTE BASOPHIL,[4],0 CELLS/uL
same,ABSOLUTE EOSINOPHIL,[4],102 CELLS/uL
same,ABSOLUTE LYMPHOCYTE,[4],13327 CELLS/uL
same,ABSOLUTE MONOCYTE,[4],456.67 CELLS/uL
same,ABSOLUTE SEGMENTED NEUTROPHIL,[4],2747.67 CELLS/uL
same,BASOPHIL,[4],0%
same,EOSINOPHIL,[4],0.67%
same,ERYTHROCYTE COUNT,[4],5.19 x10E6/uL
same,HEMATOCRIT,[4],33.1%
same,HEMOGLOBIN,[4],12.5 G/DL
same,LEUKOCYTE COUNT,[4],16.63 x10E3/uL
same,LYMPHOCYTE,[4],80%
same,MEAN CORPUSCULAR HEMOGLOBIN,[4],24.07 pg
same,MEAN CORPUSCULAR HEMOGLOBIN CONCENTRATION,[4],37.77 G/DL
same,MEAN CORPUSCULAR VOLUME,[4],63.73 fL
same,MONOCYTE,[4],2.67%
same,NEUTROPHIL,[4],16.67%
same,NUCLEATED RED BLOOD CELLS,[4],0 /100WBC
same,PLATELET COUNT,[4],1546 x10E3/uL
same,ALANINE AMINOTRANSFERASE,[4],55 u/L
same,ALBUMIN,[4],3.33 G/DL
same,ALKALINE PHOSPHATASE,[4],217 u/L
same,ASPARTATE AMINOTRANSFERASE,[4],111.33 u/L
same,BLOOD UREA NITROGEN,[4],13.67 mg/dL
same,CARBON DIOXIDE,[4],23 mmol/L
same,CHLORIDE,[4],109.33 MEQ/L
same,CHOLESTEROL,[4],66 mg/dL
same,CREATINE PHOSPHOKINASE,[4],1000 u/L
same,CREATININE,[4],0.19 mg/dL
same,GLUCOSE,[4],170 mg/dL
same,LACTATE DEHYDROGENASE,[4],160 u/L
same,LIPASE,[4],8 u/L
same,PHOSPHORUS,[4],12.67 mg/dL
same,POTASSIUM,[4],6.26 MEQ/L
same,SODIUM,[4],147.7 MEQ/L
same,TOTAL BILIRUBIN,[4],0.17 mg/dL
same,TOTAL PROTEIN,[4],5.03 G/DL
same,URIC ACID,[4],2.6 mg/dL
